{"source": "paper PMC5118774", "about": "(Frontiers in Pharmacology, 2016)", "type_in_all_cases": "in vivo, C57BL/6J mice", "key": {"α5 protein": {"test_system": "α5 protein", "assay": "Total and surface α5 protein, surface biotinylation and Western blotting", "conditions": "acute or chronic treatment", "description": "Dissected hippocampi were processed as described in [Pabba et al. (2014)] with minor modifications.\nThe following antibodies and their dilutions were used in this study: rabbit polyclonal anti-α5 (1:750; Thermo Fisher Scientific, Waltham, MA, USA), rabbit monoclonal anti-β1-[…] (NK-ATPase) (1:1000; Abcam, Cambridge, MA, USA), and mouse monoclonal anti-β-actin (1:100; Abcam, Cambridge, MA, USA).\nWestern blotting was performed using 5 μg of protein resolved on 8% SDS-PAGE and transferred onto PVDF membranes and developed using IR-Dye conjugated secondary antibody and detection using LI-COR (NE, USA). Quantification of bands was performed using Image Studio^TM Software (LI-COR, NE, USA). We analyzed α5 surface biotinylation in vehicle versus drug treated mice (N = 6 females and 4 males per group). Total α5 band intensities were normalized to β-actin, whereas surface α5 band intensities were normalized to NK-ATPase."}, "[1]": {"test_system": "mice exposed to unpredictable chronic mild stress (UCMS)", "assay": "Cookie test after UCMS", "source_text": "(§1) Mice underwent between 6 and 8 weeks of UCMS (see Supplementary Table S1 for example UCMS schedule). Animals were exposed to 2–3 mild stressors each day throughout the light/dark cycle, including wet bedding, brief restraint, forced bath, no bedding, reduced space, and predator odor over a period of several weeks (see details in Supplementary Material) ([Edgar et al., 2011]; [Lin and Sibille, 2015]). Female mice were housed 5 per cage, and male mice were housed 4 per cage in Optimice cages (Animal Care Systems Inc, Centennial, CO, USA). In experiment 3.4, UCMS was augmented with single-cage isolation housing in male mice beginning at the fourth week of UCMS until sacrifice. A timeline of experimental procedures can be found in Figure 2A (including timeline of the sections “ Drug Treatment” and “Behavioral Testing”).\n(§2) At the start of the third week of UCMS and continuing for between 28 and 42 days (including time for behavioral tests, see “Behavioral Testing”) until sacrifice, mice received daily i.p injections of vehicle (85% ddH2O, 14% propylene glycol, 1% Tween 80) or 30 mg/kg SH-053-2’F-R-CH3 (α5-PAM; synthesized in the laboratory of Dr. James M. Cook) in a volume of […]. All animals received a single daily injection (chronic α5-PAM treated mice received SH-053-2’F-R-CH3, acute α5-PAM and vehicle treated animals received vehicle injections) between 8:00AM and 9:00AM until the start of behavioral testing. After 3 weeks of treatment, all mice began receiving a second injection 30 min prior to behavioral testing. All animals received a second injection of either vehicle (for chronic α5-PAM treated animals and UCMS-vehicle treated animals) or α5-PAM acutely (α5-PAM acute animals). All injections were performed using ultra-fine insulin syringes (31 gauge, 6 mm; Becton, Dickinson and Company, Franklin Lakes, NJ, USA).\n(§3) After 5 weeks of UCMS, including 3 weeks of drug treatment, animals were assessed in a battery of behavioral tests (each test separated by 48 h, UCMS continued throughout behavioral testing for a period of 1–3 weeks). These tests included: Elevated plus maze: under red light, animals were placed on a plus maze with two open and two closed arms (30 cm × 5 cm). Number of entries into all arms as well as the time spent in the open arms was recorded for 10 min. Open field test: The open field test was conducted in a 43 cm ×43 cm arena under bright (800 lux) light. Using AnyMaze software (Stoelting, Wood Dale, IL, USA), the center 50% of the arena was identified and animals were tracked for 10 min. Novelty suppressed feeding test: Mice were food deprived for 24 h the day before testing. Testing occurred in brightly lit (∼1000 lux) open field arenas covered in bedding. A normal food pellet was placed into the brightly lit center and the latency for an animal to approach and bite the pellet was recorded over a 12 min session. Immediately following the session, animals were placed into their home cage and allowed to eat a weighed food pellet to assess hunger drive. Cookie test: The cookie test apparatus contains three identically sized chambers (40 cm × 20 cm × 20 cm) separated by two offset dividers. The outer walls of each chamber were clear and the only difference between each was the color of the divider, with one divider shaded white and the other black. One week prior to experimentation, mice were habituated in their home cage to a piece (2 ± 1 g) of Keebler Fudge Stripe Cookie (Kellogg’s Company, Battle Creek, MI, USA). On the first and second day of testing, a piece of cookie (2 ± 1 g) was placed into the chamber separated by the black divider. Mice were then placed into the opposing chamber separated by the white divider and monitored for 10 min. The latency for each mouse to bite the cookie was recorded. […]"}, "[2]": {"test_system": "mice exposed to unpredictable chronic mild stress (UCMS)", "assay": "Novelty suppressed feeding test after UCMS", "source_text": "as §1, §2, §3"}, "[3]": {"test_system": "mice exposed to unpredictable chronic mild stress (UCMS)", "assay": "Open field test after UCMS"}, "[4]": {"conditions": "female UCMS mice, acute treatment, vs UCMS-vehicle, second cohort (Figure 3)"}, "[5]": {"conditions": "female UCMS mice, chronic treatment, vs UCMS-vehicle, second cohort (Figure 3)"}, "[6]": {"conditions": "male UCMS mice, 37.5 mg/kg acute or chronic (Figure 4B), 37.5 mg/kg"}, "[7]": {"conditions": "male UCMS mice, acute or chronic 30 mg/kg i.p., first cohort (Figure 2)"}, "[8]": {"conditions": "male mice, UCMS plus single housing, chronic treatment (Figure 4A)"}}, "note": "Entries after “also recorded” stand apart in the source; their conditions may differ."}
{"smiles": "C#Cc1ccc2c(c1)C(c1ccccc1F)=N[C@H](C)c1c(C(=O)OCC)ncn1-2", "note": "[α5-PAM]", "values": [{"measurement": "total or surface α5 protein expression, hippocampus", "setting": "α5 protein; female UCMS mice", "value": "no difference; also recorded: No significant effect"}, {"measurement": "total or surface α5 protein expression, hippocampus", "setting": "α5 protein; male UCMS mice", "value": "no difference; also recorded: No significant effect"}, {"measurement": "cookie test latency to bite the cookie", "setting": "[1]; female UCMS mice, acute 30 mg/kg i.p., first cohort (Figure 2)", "value": "a trend in the same direction"}, {"measurement": "cookie test latency to bite the cookie", "setting": "[1]; [4]", "value": "reduces the latency to bite; also recorded: significantly reduced the latency to bite"}, {"measurement": "cookie test latency to bite the cookie", "setting": "[1]; female UCMS mice, chronic 30 mg/kg i.p., first cohort (Figure 2)", "value": "reduced the latency to bite; also recorded: significant decrease"}, {"measurement": "cookie test latency to bite the cookie", "setting": "[1]; [5]", "value": "reduces the latency to bite; also recorded: significantly reduced the latency to bite"}, {"measurement": "cookie test, stress-induced behavior", "setting": "[1]; [6]", "value": "No change; also recorded: failed to reduce"}, {"measurement": "cookie test latency to bite the cookie", "setting": "[1]; [7]", "value": "No significant effect; also recorded: No significant difference"}, {"measurement": "cookie test, UCMS-induced behavioral phenotype", "setting": "[1]; [8]", "value": "did not alter; also recorded: No significant effect"}, {"measurement": "NSF latency to bite food pellet", "setting": "[2]; female UCMS mice, acute 30 mg/kg i.p. 30 min before test, vs UCMS-vehicle, first cohort (Figure 2)", "value": "reduced the latency to bite; also recorded: reducing latency to bite"}, {"measurement": "NSF latency to bite food pellet", "setting": "[2]; [4]", "value": "reduces; also recorded: reduced the latency to bite"}, {"measurement": "NSF latency to bite food pellet", "setting": "[2]; female UCMS mice, chronic 30 mg/kg i.p., vs UCMS-vehicle, first cohort (Figure 2)", "value": "reduced the latency to bite; also recorded: reducing latency to bite"}, {"measurement": "NSF latency to bite food pellet", "setting": "[2]; [5]", "value": "reduces; also recorded: reduced the latency to bite"}, {"measurement": "NSF, stress-induced behavior", "setting": "[2]; [6]", "value": "No change; also recorded: failed to reduce"}, {"measurement": "NSF latency to bite food pellet", "setting": "[2]; [7]", "value": "no effect"}, {"measurement": "NSF, UCMS-induced behavioral phenotype", "setting": "[2]; [8]", "value": "did not alter; also recorded: No significant effect"}, {"measurement": "OFT percentage of total distance traveled in the center", "setting": "[3]; [5]", "value": "increases; also recorded: higher percentage of their total distance traveled"}, {"measurement": "OFT behavior", "setting": "[3]; female and male UCMS mice, acute or chronic 30 mg/kg i.p., first cohort (Figure 2)", "value": "did not detect any significant main effects; also recorded: No effect"}, {"measurement": "OFT, stress-induced behavior", "setting": "[3]; [6]", "value": "No change; also recorded: failed to reduce"}, {"measurement": "OFT, UCMS-induced behavioral phenotype", "setting": "[3]; [8]", "value": "did not alter; also recorded: No significant effect"}]}
